What was measured:
[1] = Cytotoxicity against human HL60 cells assessed as cell growth inhibition at 10 uM after 48 hrs by MTT assay; type: functional; conditions: HL-60, 48 h, read-out: GI
[2] = Cytotoxicity against human HL60 cells assessed as cell growth inhibition after 48 hrs by MTT assay; type: functional, cell-based; conditions: HL-60, 48 h
[3] = Cytotoxicity against human MIAPaCa2 cells assessed as cell growth inhibition after 48 hrs by MTT assay; type: functional, cell-based; conditions: MIA PaCa-2, 48 h
[4] = Cytotoxicity against human PC3 cells assessed as cell growth inhibition at 10 uM after 48 hrs by MTT assay; type: functional; conditions: PC-3, 48 h, read-out: GI
[5] = Cytotoxicity against human MIAPaCa2 cells assessed as cell growth inhibition at 10 uM after 48 hrs by MTT assay; type: functional; conditions: MIA PaCa-2, 48 h, read-out: GI
A549 [6] = test: Cytotoxicity against human A549 cells assessed as cell growth inhibition at 10 uM after 48 hrs by MTT assay; type: functional; conditions: A549, 48 h, read-out: GI
A549 [7] = test: Cytotoxicity against human A549 cells assessed as cell growth inhibition after 48 hrs by MTT assay; type: functional, cell-based; conditions: A549, 48 h
[8] = Cytotoxicity against human PC3 cells assessed as cell growth inhibition after 48 hrs by MTT assay; type: functional, cell-based; conditions: PC-3, 48 h

Row | SMILES | inhibition of growth at 10 µM [1] [%] | IC50 [2] [µM] | IC50 [3] [µM] | inhibition of growth at 10 µM [4] [%] | inhibition of growth at 10 µM [5] [%] | inhibition of growth at 10 µM (A549 [6]) [%] | IC50 (A549 [7]) [µM] | IC50 [8] [µM]
1 | C=C(C)[C@@H]1CC[C@]2(C(=O)OCc3cn(-c4ccc5c(c4)OCO5)nn3)CC[C@]3(C)[C@H](CC[C@@H]4[C@@]5(C)CC[C@H](O)C(C)(C)[C@@H]5CC[C@]43C)[C@@H]12 | 53 | 8 | 8 | 49 | 56 | 53 | 8 | 9
2 | C=C(C)[C@@H]1CC[C@]2(C(=O)OCc3cn(-c4ccc(OC)c(OC)c4)nn3)CC[C@]3(C)[C@H](CC[C@@H]4[C@@]5(C)CC[C@H](O)C(C)(C)[C@@H]5CC[C@]43C)[C@@H]12 | 7 | 8 | 21 | 8 | 8 | 6 | 16 | 11
3 | C=C(C)[C@@H]1CC[C@]2(C(=O)O)CC[C@]3(C)[C@H](CC[C@@H]4[C@@]5(C)CC[C@H](O)C(C)(C)[C@@H]5CC[C@]43C)[C@@H]12 [BETULINIC ACID] | 69 | 8 | 7 | 70 | 70 | 68 | 8 | 7
4 | C=C(C)[C@@H]1CC[C@]2(C(=O)OCc3cn(-c4ccc5cc(OC)ccc5c4)nn3)CC[C@]3(C)[C@H](CC[C@@H]4[C@@]5(C)CC[C@H](O)C(C)(C)[C@@H]5CC[C@]43C)[C@@H]12 | 35 | 29 | > 100 | 33 | 12 | 22 | > 100 | 31

Reference: ChEMBL document CHEMBL3758109, “A novel triazole derivative of betulinic acid induces extrinsic and intrinsic apoptosis in human leukemia HL-60 cells” (Eur J Med Chem, 2016)
